Test results as given in patent publication US4026888A, “Certain derivatives of particular 3-thiolated cephalosporins” (priority 1976, dated 1977).
Values after ≈ are worked out from the molar mass of the structure shown. Read-outs that look alike come from different tables or passages of the source.

Experiments:
P. mirabilis A9900 [1] = experiment: Oral PD50 in mice; type: in vivo; settings: Proteus mirabilis, A9900, po, 3.5 h, oral; mice treated at 1 and 3.5 hours post-challenge; read-out: PD50
Str. pyogenes A9604 = experiment: Antibiotic activity in nutrient broth (MIC); type: cell-based; settings: Streptococcus pyogenes, A9604, inoculum 10^-3; 45% AAB + 5% serum + 50% broth; derivatives adjusted for BL-S640 content; read-out: MIC
Source text: (§1) Antibiotic Activity In Nutrient Broth
(§2) * 45% AAB+ 5% serum+ 50% broth listed above.
(§3) ** Dilution of overnight broth culture.
(§4) Antibiotic Spectrum Nutrient Broth
(§5) * 45% AAB + 5% serum + 50% broth
(§6) Antibiotic Spectrum in Nutrient Broth
(§7) *45% AAB + 5% serum + 50% broth listed above.

Str. pneumoniae A9585 = experiment: Antibiotic activity in nutrient broth (MIC); type: cell-based; settings: Streptococcus pneumoniae, A9585, inoculum 10^-3 dilution of overnight broth culture; 45% AAB + 5% serum + 50% broth; derivatives adjusted for BL-S640 content
Source text: as §1, §2, §3, §4, §5, §6, §7

P. mirabilis A9900 [2] = experiment: IM PD50 in mice; type: in vivo; settings: Proteus mirabilis
Source text: Comparative IM PD50 Values of
(§8) BL-S640 Derivatives in Mice

[3] = Mouse blood levels after intramuscular administration; type: in vivo; settings: for concentration at 0.25 h / concentration at 0.5 h / concentration at 1 h / concentration at 1.5 h: mouse, blood, im, 10 mg/kg, IM 10 mg./kg., 0.01% phosphate buffer
Protocol: Mouse Blood Levels After Intramuscular Administration
of 10 mg./kg. Body Weight
The compounds were dissolved in 0.01% phosphate buffer.
Mouse Blood Levels After IM
Administration of 10 mg./kg. Body Weight
The compounds were prepared in 0.01% phosphate
(§9) The compounds were prepared in 0.01% phosphate buffer.

[4] = Mouse blood levels after oral administration; type: in vivo; settings: for Blood Level: listed as Compound of Ex. 1, 100 mg/kg; for concentration at 0.5 h / concentration at 1 h / concentration at 2 h / concentration at 3.5 h: mouse, blood, po, 100 mg/kg
Protocol: Mouse Blood Levels After Oral
Administration Of 100 mg./kg. Body Weight
The compounds were prepared in
Tween - carboxymethylcellulose
and 8 mice were used for each
Mouse Blood Levels After PO
Administration of 100 mg./kg. Body Weight
The compounds were prepared in Tween-CMC. BL-S640
The compounds were prepared in Tween-CMC. Values are the average of two

[5] = Urinary recovery after IM administration to rats; type: in vivo; settings: rat, urine, read-out: Urinary Recovery, Percentage of Administered Dose Recovered; for dose excreted at 6 h: 0-6 hr
Protocol: Urinary Recovery After IM
Administration of 50 and 10 mg./kg. to Rats
The compounds were prepared in 0.01% phosphate buffer. BL-S640 was used as
Urinary Recovery after IM
Administration of 50 mg./kg. to Rats
as §9

Ent. cloacae A9659 = experiment: Antibiotic activity in nutrient broth (MIC); type: cell-based; settings: Enterobacter cloacae, A9659, inoculum 10^-4; derivatives adjusted for BL-S640 content; read-out: MIC
Source text: as §1, §3, §4, §6

Ser. marcescens A20019 = experiment: Antibiotic activity in nutrient broth (MIC); type: cell-based; settings: derivatives adjusted for BL-S640 content
Source text: as §1, §3, §4, §6

Pr. mirabilis A9900 = experiment: Antibiotic activity in nutrient broth (MIC); type: cell-based; settings: Proteus mirabilis, inoculum 10^-4, derivatives adjusted for BL-S640 content
Source text: as §1, §3, §4, §6

Ps. aeruginosa A9843A = experiment: Antibiotic activity in nutrient broth (MIC); type: cell-based; settings: Pseudomonas aeruginosa
Source text: as §1, §3, §4, §6

S. aureus BX1633 A9606 = experiment: Antibiotic activity in nutrient broth (MIC); type: cell-based; settings: Staphylococcus aureus, derivatives adjusted for BL-S640 content, read-out: MIC
Source text: as §1, §3, §4, §6

S. aureus Smith A9537 = experiment: Antibiotic activity in nutrient broth (MIC); type: cell-based; settings: derivatives adjusted for BL-S640 content
Source text: as §1, §3, §4, §6

[6] = system: S. aureus Meth-Res A15097; experiment: Antibiotic activity in nutrient broth (MIC); type: cell-based; settings: inoculum 10^-3, Meth-Res, derivatives adjusted for BL-S640 content
Source text: as §1, §3, §4, §6

E. coli Juhl A15119 = experiment: Antibiotic activity in nutrient broth (MIC); type: cell-based; settings: Escherichia coli, JUHLA15119, inoculum 10^-4; derivatives adjusted for BL-S640 content; read-out: MIC
Source text: as §1, §3, §4, §6

[7] = Paper chromatography of rat urine for antibiotically active metabolites; type: in vivo; settings: IM; rat urine 0-2 and 2-4 hours
Protocol: Paper chromatograms were run on rat urine collected between 0 and 2 and between 2 and 4 hours following IM administration of BL-S1055 and 640, for the detection of antibiotically active metabolites using descending chromatography with system No. 9 (butyl acetate:n-butanol:glacial acetic acid:H2 O= 80:15:40:24).

P. mirabilis A9707 = experiment: Oral PD50 in mice; type: in vivo; settings: Proteus mirabilis, mice treated at 1 and 3.5 hours post-challenge
Protocol: Comparative Oral PD50 Values of
as §8
*Mice were treated at 1 and 3.5 hours post-challenge.

[8] = Example 2, 16 or 32 mice, read-out: Blood Levels
[9] = Table III, read-out: Mouse Blood Levels

O=C(O)C1=C(CSc2cnn[nH]2)CS[C@@H]2[C@H](N3C(=O)[C@@H](c4ccc(O)cc4)NC3c3ccc(S(=O)(=O)O)o3)C(=O)N12 (stereo partly shown) [BL-S1027]
ED50 (P. mirabilis A9900 [1]): 6.3 mg/kg
MIC (Str. pyogenes A9604): 0.03 µg/mL
MIC (Str. pneumoniae A9585): 0.03 µg/mL
ED50 (P. mirabilis A9900 [2]): 1.6 mg/kg
Mouse blood levels, intramuscular, compared with BL-S640 propylene glycol adduct ([3]; intramuscular, in words): approximately equal
concentration at 0.25 h [3, 8]: 15400 ng/mL
concentration at 0.5 h [3, 8]: 15100 ng/mL
concentration at 1 h [3, 8]: 11800 ng/mL
concentration at 1.5 h [3, 8]: 8200 ng/mL
concentration at 0.25 h [3, 9]: 16100 ng/mL
concentration at 0.5 h [3, 9]: 14800 ng/mL
concentration at 1 h [3, 9]: 11900 ng/mL
concentration at 1.5 h [3, 9]: 8000 ng/mL
free BL-S640 by liquid chromatography (1 mg./ml. in pH 7 phosphate buffer, 0 time): 85%
Form in solution by paper strip and liquid chromatography (0.2 and 1.0 mg./ml. in water): exists as free BL-S640
Blood Level ([4]; Table II, oral 100 mg./kg., 0.5 hr, Tween-carboxymethylcellulose, 8 mice, 30 min): 54600 ng/mL
Blood Level ([4]; Table II, oral 100 mg./kg., 1 hr, Tween-carboxymethylcellulose, 8 mice, 60 min): 53500 ng/mL
Blood Level ([4]; Table II, oral 100 mg./kg., 2 hr, Tween-carboxymethylcellulose, 8 mice, 120 min): 27600 ng/mL
Blood Level ([4]; Table II, oral 100 mg./kg., 3.5 hr, Tween-carboxymethylcellulose, 8 mice, 210 min): 8200 ng/mL
concentration at 0.5 h ([4]; Example 2, PO 100 mg./kg., 0.5 hr, Tween-CMC, 16 or 32 mice, read-out: Blood Levels): 49800 ng/mL
concentration at 1 h ([4]; Example 2, PO 100 mg./kg., 1 hr, Tween-CMC, 16 or 32 mice, read-out: Blood Levels): 45100 ng/mL
concentration at 2 h ([4]; Example 2, PO 100 mg./kg., 2 hr, Tween-CMC, 16 or 32 mice, read-out: Blood Levels): 24000 ng/mL
concentration at 3.5 h ([4]; Example 2, PO 100 mg./kg., 3.5 hr, Tween-CMC, 16 or 32 mice, read-out: Blood Levels): 9300 ng/mL
concentration at 0.5 h ([4]; Table II, oral 100 mg./kg., 0.5 hr, Tween-carboxymethylcellulose, 8 mice, read-out: Blood Level): 45000 ng/mL
concentration at 1 h ([4]; Table II, oral 100 mg./kg., 1 hr, Tween-carboxymethylcellulose, 8 mice, read-out: Blood Level): 36600 ng/mL
concentration at 2 h ([4]; Table II, oral 100 mg./kg., 2 hr, Tween-carboxymethylcellulose, 8 mice, read-out: Blood Level): 20400 ng/mL
concentration at 3.5 h ([4]; Table II, oral 100 mg./kg., 3.5 hr, Tween-carboxymethylcellulose, 8 mice, read-out: Blood Level): 10400 ng/mL
Mouse blood levels, oral, compared with BL-S640 propylene glycol adduct ([4]; oral, in words): approximately equal
dose excreted at 6 h ([5]; 10 mg/kg, IM 10 mg./kg.): 30.1%
dose excreted at 24 h ([5]; 10 mg/kg, IM 10 mg./kg., 0-24 hr): 31.8%
dose excreted at 24 h ([5]; 10 mg/kg, IM 10 mg./kg., 6-24 hr): 1.7%
dose excreted at 6 h ([5]; 50 mg/kg, IM 50 mg./kg.): 39.6%
dose excreted at 24 h ([5]; 50 mg/kg, IM 50 mg./kg., 0-24 hr): 42.2%
dose excreted at 24 h ([5]; 50 mg/kg, IM 50 mg./kg., 6-24 hr): 2.6%
MIC (Ent. cloacae A9659): 32 µg/mL (≈ 51.6 µM)
MIC (Ser. marcescens A20019; Serratia marcescens, A20019, inoculum 10^-4): > 125 µg/mL
MIC (Ser. marcescens A20019; inoculum 10^-4): 125 µg/mL (≈ 201 µM)
MIC (Pr. mirabilis A9900): 0.5 µg/mL (≈ 0.806 µM)
MIC (Ps. aeruginosa A9843A): > 125 µg/mL
MIC (S. aureus BX1633 A9606; BX1633A9606, inoculum 10^-2): 4 µg/mL (≈ 6.44 µM)
MIC (S. aureus BX1633 A9606; BX1633A9606, inoculum 10^-3): 0.5 µg/mL (≈ 0.806 µM)
MIC (S. aureus Smith A9537; Staphylococcus aureus, SMITHA9537, inoculum 10^-4, + 50% serum, read-out: MIC): 2 µg/mL
MIC (S. aureus Smith A9537; Staphylococcus aureus, SMITHA9537, inoculum 10^-4, nutrient broth, read-out: MIC): 0.27 µg/mL (≈ 0.435 µM)
MIC (S. aureus Smith A9537; inoculum 10^-4, nutrient broth): 0.25 µg/mL (≈ 0.403 µM)
MIC ([6]; Staphylococcus aureus, read-out: MIC): 4 to 8 µg/mL (≈ 6.44 to 12.9 µM)
MIC [6]: 4 µg/mL (≈ 6.44 µM)
MIC (E. coli Juhl A15119): 1 µg/mL (≈ 1.61 µM)
Hydrolysis to the parent compound (BL-S640) [7]: complete hydrolysis
ED50 (P. mirabilis A9707): 1.8 mg/kg
